The structures appear in SMILES notation.

For the test, the target named is recombinant Human Phosphodiesterase B2 (PDE4B2) (Homo sapiens, UniProt Q07343). The experiment in a line: Human Phosphodiesterase B2 Radiometric Assay (yttrium silicate SPA beads, [3H]cyclic AMP). The class given is biochemical. The settings on record: recombinant human PDE4B2, radiometric SPA assay, 8 nM [3H]cyclic AMP; read-out: PDE4B2 pIC50 (converted). In outline: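 Read-out is scintillation proximity: yttrium silicate beads (with 18 mM ZnSO4, added to stop the reaction) bind 5′AMP formed from 8 nM [3H]cAMP over 20 min. Beforehand, compound and 0.1 mg/mL enzyme were preincubated 30 min at 30 °C in pH 7.5 HEPES buffer with MgCl2, EGTA and Brij 35; pIC50 values were curve-fitted.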
recombinant Human Phosphodiesterase B2 (PDE4B2), sequence (Q07343 1-564 isoform Q07343-2): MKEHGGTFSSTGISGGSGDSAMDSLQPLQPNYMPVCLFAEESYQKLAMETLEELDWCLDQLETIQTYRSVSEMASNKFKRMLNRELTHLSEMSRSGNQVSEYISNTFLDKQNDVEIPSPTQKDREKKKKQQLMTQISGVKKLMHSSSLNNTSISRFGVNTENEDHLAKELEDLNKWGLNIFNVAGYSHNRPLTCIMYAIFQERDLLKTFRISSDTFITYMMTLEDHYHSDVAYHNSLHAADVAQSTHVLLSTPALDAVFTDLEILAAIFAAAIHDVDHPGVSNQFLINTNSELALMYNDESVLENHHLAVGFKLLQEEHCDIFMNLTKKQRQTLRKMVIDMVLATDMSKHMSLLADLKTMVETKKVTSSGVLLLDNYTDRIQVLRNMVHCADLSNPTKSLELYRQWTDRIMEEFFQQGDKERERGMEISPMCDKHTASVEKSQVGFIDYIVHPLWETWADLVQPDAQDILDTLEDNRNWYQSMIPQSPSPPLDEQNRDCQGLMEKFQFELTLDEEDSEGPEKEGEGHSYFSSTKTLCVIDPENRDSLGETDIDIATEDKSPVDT
For `CC(C)N1CCN(Cc2ccc(-c3cccc(-n4c(=O)n([C@H]5CC[C@@H](NC(=O)CC6CCOCC6)CC5)c(=O)c5cc(F)cnc54)c3)cc2)CC1` [Example 234, N-{cis-4-[6-fluoro-1-{4′-[(4-isopropylpiperazin-1-yl)methyl]biphenyl-3-yl}-2,4-dioxo-1,4-di-hydropyrido[2,3-d]pyrimidin-3(2H)-yl]cyclohexyl}-2-(tetrahydro-2H-pyran-4-yl)acetamide], the IC50 is 0.1 nM.
In the case of `Cc1ccc2nc(CN[C@H]3CC[C@@H](n4c(=O)c5cc(F)cnc5n(-c5cccc(-c6ccc(O)cc6CN6CCOCC6)c5)c4=O)CC3)cn2c1` [Example 334, 6-fluoro-1-[4′-hydroxy-2′-(morpholin-4-ylmethyl)biphenyl-3-yl]-3-(cis-4-{[(6-methylimidazo[1,2-a]pyridin-2-yl)methyl]amino}cyclohexyl)pyrido[2,3-d]pyrimidine-2,4 (1H,3H)-dione] it was 0.0631 nM; in that of `O=C(N[C@H]1CC[C@@H](n2c(=O)c3cc(F)cnc3n(-c3cccc(-c4ccc(CCCO)cc4)c3)c2=O)CC1)c1cn2cc(F)ccc2n1` [Example 20, 6-fluoro-N-{cis-4-[6-fluoro-1-[4′-(3-hydroxypropyl)biphenyl-3-yl]-2,4-dioxo-1,4-dihydropyrido[2,3-d]pyrimidin-3(2H)-yl]cyclohexyl}imidazo[1,2-a]pyridine-2-carboxamide.], 0.02 nM.
With `Cc1nc(C(=O)N[C@H]2CC[C@@H](n3c(=O)c4cc(F)cnc4n(-c4cccc(-c5ccc(CN6CCCN(C)CC6)cc5)c4)c3=O)CC2)cs1` [Example 309, N-{cis-4-[6-fluoro-1-{4′-[(4-methyl-1,4-diazepan-1-yl)methyl]biphenyl-3-yl}-2,4-dioxo-1,4-dihydropyrido[2,3-d]pyrimidin-3(2H)-yl]cyclohexyl}-2-methyl-1,3-thiazole-4-carboxamide], the IC50 was 0.1 nM.
Regarding `CN(Cc1ccc(-c2cccc(-n3c(=O)n([C@H]4CC[C@@H](NC(=O)c5cn6cc(F)ccc6n5)CC4)c(=O)c4cc(F)cnc43)c2)cc1)C(C)(C)C` [Example 57, N-{cis-4-[1-(4′-{[tert-butyl(methyl)amino]methyl}biphenyl-3-yl)-6-fluoro-2,4-dioxo-1,4-dihydropyrido[2,3-d]pyrimidin-3(2H)-yl]cyclohexyl}-6-fluoroimidazo[1,2-a]pyridine-2-carboxamide], the IC50 was 0.1 nM.
To `CSc1ccccc1-c1cccc(-n2c(=O)n([C@H]3CC[C@@H](NC(=O)c4cn5cc(F)ccc5n4)CC3)c(=O)c3cc(F)cnc32)c1` [Example 17, 6-fluoro-N-{cis-4-[6-fluoro-1-[2′-(methylthio)biphenyl-3-yl]-2,4-dioxo-1,4-dihydropyrido[2,3-d]pyrimidin-3(2H)-yl]cyclohexyl}imidazo[1,2-a]pyridine-2-carboxamide.] belongs 0.00794 nM; to `CN(C)CCCC(=O)N[C@H]1CC[C@@H](n2c(=O)c3cc(F)cnc3n(-c3cccc(-c4ccccc4)c3)c2=O)CC1` [Example 93, N-[cis-4-(1-biphenyl-3-yl-6-fluoro-2,4-dioxo-1,4-dihydropyrido[2,3-d]pyrimidin-3(2H)-yl)cyclohexyl]-4-(dimethylamino)butanamide], 5.01 nM.
Regarding `Cc1ccccc1-c1cccc(-n2c(=O)n([C@H]3CC[C@@H](N)CC3)c(=O)c3cc(F)cnc32)c1` [Example 52, 3-(cis-4-aminocyclohexyl)-6-fluoro-1-(2′-methylbiphenyl-3-yl)pyrido[2,3-d]pyrimidine-2,4(1H,3H)-dione], the IC50 was 2.51 nM.
As for `CN1CCCN(Cc2ccc(-c3cccc(-n4c(=O)n([C@H]5CC[C@@H](NC(=O)c6nc7ccccc7[nH]c6=O)CC5)c(=O)c5cc(F)cnc54)c3)cc2)CC1` [Example 360, N-{cis-4-[6-fluoro-1-{4′-[(4-methyl-1,4-diazepan-1-yl)methyl]biphenyl-3-yl}-2,4-dioxo-1,4-dihydropyrido[2,3-d]pyrimidin-3(2H)-yl]cyclohexyl}-3-oxo-3,4-dihydroquinoxaline-2-carboxamide], the IC50 is 0.0398 nM.
On to `O=c1c2cc(F)cnc2n(-c2cccc(-c3ccc(CN4CCOCC4)cc3)c2)c(=O)n1[C@H]1CC[C@@H](NCc2cn3cc(F)ccc3n2)CC1` [Example 76, 6-fluoro-3-(cis-4-{[(6-fluoroimidazo[1,2-a]pyridin-2-yl)methyl]amino}cyclohexyl)-1-[4′-(morpholin-4-ylmethyl)biphenyl-3-yl]pyrido[2,3-d]pyrimidine-2,4(1H,3H)-dione ditrifluoroacetic acid], for which the IC50 is 0.316 nM.
On to `CC(C)N1CCN(Cc2ccc(-c3cccc(-n4c(=O)n([C@H]5CC[C@@H](NC(=O)C6(N(C)C)CC6)CC5)c(=O)c5cc(F)cnc54)c3)cc2)CC1` [Example 129, 1-(dimethylamino)-N-{cis-4-[6-fluoro-1-{4′-[(4-isopropylpiperazin-1-yl)methyl]biphenyl-3-yl}-2,4-dioxo-1,4-dihydropyrido[2,3-d]pyrimidin-3(2H)-yl]cyclohexyl}cyclopropanecarboxamide], for which the IC50 is 0.0398 nM.
Consider `CN(C)Cc1ccc(-c2cccc(-n3c(=O)n([C@H]4CC[C@@H](NC(=O)c5cn6cc(F)ccc6n5)CC4)c(=O)c4cc(F)cnc43)c2)cc1` [Example 12, N-{cis-4-[1-{4′-[(dimethylamino)methyl]biphenyl-3-yl}-6-fluoro-2,4-dioxo-1,4-dihydropyrido[2,3-d]pyrimidin-3(2H)-yl]cyclohexyl}-6-fluoroimidazo[1,2-a]pyridine-2-carboxamide], for which the IC50 is 0.1 nM.
Regarding `CN(Cc1ccc(-c2cccc(-n3c(=O)n([C@H]4CC[C@@H](NC(=O)c5cn6c(n5)CCCC6)CC4)c(=O)c4cc(F)cnc43)c2)cc1)C(C)(C)C` [Example 136, N-{cis-4-[1-(4′-{[tert-butyl(methyl)amino]methyl}biphenyl-3-yl)-6-fluoro-2,4-dioxo-1,4-dihydropyrido[2,3-d]pyrimidin-3(2H)-yl]cyclohexyl}-5,6,7,8-tetrahydroimidazo[1,2-a]pyridine-2-carboxamide], the IC50 is 0.0316 nM.
In the case of `Cc1cc(C(=O)N[C@H]2CC[C@@H](n3c(=O)c4cc(F)cnc4n(-c4cccc(-c5ccc(CN6CCN(c7ccccn7)CC6)cc5)c4)c3=O)CC2)nn1C` [Example 214, N-{cis-4-[6-fluoro-2,4-dioxo-1-{4′-[(4-pyridin-2-ylpiperazin-1-yl)methyl]biphenyl-3-yl}-1,4-dihydropyrido[2,3-d]pyrimidin-3(2H)-yl]cyclohexyl}-1,5-dimethyl-1H-pyrazole-3-carboxamide] it was 0.0251 nM.
To `CNCCNCc1ccc(-c2cccc(-n3c(=O)n([C@H]4CC[C@@H](NC(=O)c5cn6cc(F)ccc6n5)CC4)c(=O)c4cc(F)cnc43)c2)cc1` [Example 64, 6-fluoro-N-{cis-4-[6-fluoro-1-[4′-({[2-(methylamino)ethyl]amino}methyl)biphenyl-3-yl]-2,4-dioxo-1,4-dihydropyrido[2,3-a]pyrimidin-3(2H)-yl]cyclohexyl}imidazo[1,2-a]pyridine-2-carboxamide] belongs 0.0794 nM; to `O=C(N[C@H]1CC[C@@H](n2c(=O)c3cc(F)cnc3n(-c3cccc(-c4ccc(CN5CCCN(CCO)CC5)cc4)c3)c2=O)CC1)c1cn2c(n1)CCCC2` [Example 222, N-{cis-4-[6-fluoro-1-(4′-{[4-(2-hydroxyethyl)-1,4-diazepan-1-yl]methyl}biphenyl-3-yl)-2,4-dioxo-1,4-dihydropyrido[2,3-d]pyrimidin-3(2H)-yl]cyclohexyl}-5,6,7,8-tetrahydroimidazo[1,2-a]pyridine-2-carboxamide], 0.00631 nM.

Source of the values: patent publication US20100204203A1, “Chemical Compounds 637: Pyridopyrimidinediones as PDE4 Inhibitors” (priority 2007, published 2010).
